IC50 data for one compound are collected here from PMC10587872, “Virtual Screening-Accelerated Discovery of a Phosphodiesterase 9 Inhibitor with Neuroprotective Effects in the Kainate Toxicity In Vitro Model” (ACS Chemical Neuroscience, 2023).

The assay addresses T1, PDE9 (PDE9A) (Homo sapiens, UniProt O76083).
T1 construct: full-length recombinant human PDE9
Nature of the assay: PDE-Glo phosphodiesterase luminescence assay with cGMP substrate, recombinant human PDE9A. In kind it is biochemical.

T1 sequence (O76083 whole entry): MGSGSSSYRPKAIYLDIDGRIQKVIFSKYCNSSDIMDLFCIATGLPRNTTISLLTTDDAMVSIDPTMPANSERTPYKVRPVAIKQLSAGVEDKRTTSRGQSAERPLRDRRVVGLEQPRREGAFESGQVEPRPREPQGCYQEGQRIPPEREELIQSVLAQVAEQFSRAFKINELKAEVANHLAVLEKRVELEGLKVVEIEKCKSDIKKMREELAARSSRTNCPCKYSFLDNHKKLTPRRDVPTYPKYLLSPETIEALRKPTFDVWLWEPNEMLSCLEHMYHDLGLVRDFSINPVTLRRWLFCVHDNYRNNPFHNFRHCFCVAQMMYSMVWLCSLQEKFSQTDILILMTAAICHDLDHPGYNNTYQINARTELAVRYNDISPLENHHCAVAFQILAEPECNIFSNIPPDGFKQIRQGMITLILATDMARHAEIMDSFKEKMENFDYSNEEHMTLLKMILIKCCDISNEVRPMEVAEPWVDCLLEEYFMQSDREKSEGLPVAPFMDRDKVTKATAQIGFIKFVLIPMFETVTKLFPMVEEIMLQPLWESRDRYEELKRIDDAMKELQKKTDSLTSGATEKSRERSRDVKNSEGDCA

Turning to `CC(C)=CCc1c2c(c3occ(-c4ccc(OS(C)(=O)=O)c(OS(C)(=O)=O)c4)c(=O)c3c1O)C=CC(C)(C)O2` [DB987], the IC50 worked out at 5.35 nM.
